# Measured values taken from patent publication US20110076318A1, “RETINOID-CONTAINING SUSTAINED RELEASE INTRAOCULAR IMPLANTS AND RELATED MATTERS” (Allergan, Inc., priority 2004, published 2011).
# Read-outs that look alike come from different tables or passages of the source.
# Key:
# photoreceptors = test: Rhodopsin mutant transgenic rat models of retinal degeneration; type: in vivo, Transgenic S334ter rats; conditions: i.p., S334ter line 3 and line 4
# Protocol: The objective of this study was to determine the efficacy of various retinoids in preventing retinal damage or improving retinal survival in rhodopsin mutant transgenic rat models of retinal degeneration. The overall goal of the research was to investigate potential photoreceptor survival in mutant rhodopsin transgenic rats using RAR α, RAR β γ, and RXR retinoid agonists.
# The experimental design was straightforward. A compound was injected daily to line 3 and every two days for line 4 animals (i.p.) for a given period and animals were sacrificed at the end by CO2 overdose followed immediately by vascular perfusion of mixed aldehydes. Two litters of rats were used:
# 1. Transgenic S334ter-3 rats. Line 3 bears a rhodopsin mutation S334ter. […] Injection of a compound will be given daily from PD 6 (post-delivery day 6) to PD 20.
# 2. Transgenic S334ter-4 rats. Line 4 bears a rhodopsin mutation S334ter. Animals of this line experience a 80% loss of photoreceptors by 60 days after birth. The ONL is reduced to one row of nuclei. Injection of a compound will be given every other day from PD 25 to PD 60.
# For the line 3 animals, treatment started at PD 6 and the endpoint was PD 20. For the line 4, injection began at PD 25 and ended at PD60 when eyes were harvested. Eyes were embedded in an Epon/Araldite mixture for sectioning at 1 μm thickness along the vertical meridian. Protection of photoreceptors was be evaluated by counting the rows of nuclei in the outer nuclear layer.
# The outcome was a measure of retinal outer layer thickness, and cytology over an 8 week period. Compounds included the retinoid agonists tazarotene (RAR β γ), AGN 195183 (RAR α) and AGN 194204 (RXR). […] This is a fairly harsh model and as such the modest improvement by tazarotene is quite significant.
# Solubility of tazarotene = type: physicochemical
# Protocol: This was due to the extremely low solubility of Tazarotene in 0.9% saline, which was determined to be less than 1 μg/mL. Therefore, it was difficult to see any differences in the release profiles of different formulations. Work began to search for a release medium that would differentiate the release profiles of all formulations.
# [1] = Intraocular pharmacokinetics after single intravitreal injection of Tazarotene; type: in vivo, female New Zealand White rabbits; conditions: rabbit; for concentration at 2 hr / concentration at 24 hr / half-life: female, New Zealand White; for concentration at 2 hr / concentration at 24 hr: other: intravitreal injection; for concentration at 2 hr: 2 hr post dose; for concentration at 24 hr: 24 hr post dose; for half-life: topical or ocular
# Protocol: The intraocular pharmacokinetics of Tazarotene was assessed in female New Zealand White rabbits following a single intravitreal injection. The rabbits were dosed with bilateral intravitreal injections of Tazarotene (1250 ng in 50 μL). At 0.5, 1, 2, 4, 8, 12, and 24 hr post dose, animals were sacrificed and the aqueous humor, vitreous humor, and retina samples were analyzed. […] The Tazarotene concentration in the retina was close to its vitreal concentration at all time points, declining from 859±131 ng/g at 2 hr post dose to 93.1±28.9 ng/g by 24 hr post dose. […] It was shown that Tazarotene has a relatively long intravitreal half-life and that the retinal concentration parallel the vitreous when given as a neat injection. However, despite a very low solubility the clearance of Tazarotene from the retina is fast enough to require sustained release for extended duration of action.
# [2] = Plasma concentrations after topical and oral dosing of tazarotene; type: in vivo, patients; conditions: for Cmax: human, po, read-out: TAZAROTENE Cmax
# Protocol: […] For the most part tazarotene is not observed in the plasma after topical or oral administration. Facile hydrolysis by pre-systemic metabolism rapidly generates the free acid. […] It is important to note that these are plasma concentrations and the eye plasma distribution ratio is 0.02. Over 90% of all patients in the phase 3 clinical trials had concentrations of the parent compound, tazarotene, <1 ng/mL with the highest being 6 ng/mL.
# Oral delivery of 1.1 mg and 6 mg multiple doses led to 28.9 ng/mL and 227 ng/ml peak levels with a 2.56 ng/mL trough. This corresponds to a maximum possible 4 ng/mL ocular level for the highest dose. FIG. 11 depicts the tissue distribution of tazarotenic acid. The eyes show a 2% tissue/plasma ration in the rat. It should be noted that tazarotenic acid is 99% protein bound and distribution is limited to unbound drug.
# [3] = Measured lipophilicity of tazarotene; type: physicochemical
# [4] = system: retinal function and structure; test: Blue light retinal degeneration model; type: in vivo, Sprague dawley rats; conditions: daily oral doses for five days before 12000 lux blue light, eight hours
# Protocol: AGN 194310, AGN 194204, tazarotene and AGN 199852 were evaluated in the blue light retinal degeneration model. Sprague dawley rats were pretreated for five days with daily oral doses of the retinoids. The rats were then exposed to high intensity light, 12000 lux blue fluorescent, for eight hours. Five days post exposure the retinal function was assessed by full flash ERG and structure by outer nuclear layer thickness.
# [5] = system: PVR induced by human RPE cells; test: PVR model with retinoid implants, Fastenberg scale; type: in vivo
# Description: PLA and PLGA implants 1.5 mm in diameter and 3 mm in length were fabricated by extrusion of the polymer drug blend. Tazarotenic acid (the free acid of Tazarotene) Tazarotene and 13-cis-retinoic acid were loaded into the implants at 10% concentrations. Briefly, pigmented rabbits were vitrectomized followed by intravitreal injection of 500,000 human RPE cells. After injection of the RPE cells the retinoid implants were placed into the vitreous and anchored to the sclera with the suture used to close the sclerotomy.
# The eyes were examined weekly for 4 weeks. Severity of PVR was graded based on the Fastenberg scale. At 4 weeks gross pathology and limited histopathology were conducted.
# [6] = retina, 1250 ng, read-out: Tazarotene concentration in the retina
# [7] = vitreous humor, 1250 ng intravitreal, read-out: Tazarotene concentration in the vitreous humor
structure (smiles),measurement,setting,value
"CCOC(=O)c1ccc(C#Cc2ccc3c(c2)C(C)(C)CCS3)nc1 [Tazarotene, Ethyl 6-[(4,4-dimethylthiochroman-6-yl)ethynyl]nicotinate]",protection of photoreceptors (outer nuclear layer),photoreceptors,only compound to show efficacy
same,solubility,"Solubility of tazarotene; 0.9% saline, saline or isotonic, read-out: solubility in 0.9% saline",< 1 µg/mL
same,solubility,"Solubility of tazarotene; water, read-out: solubility in water",1 µg/mL
same,concentration at 2 hr,[1]; [6],859 ± 131 ng/g
same,concentration at 24 hr,[1]; [6],93.1 ± 28.9 ng/g
same,half-life,"[1]; retina, 1250 ng, read-out: mean t1/2 of elimination from the retina (converted)",7.63 h
same,concentration at 2 hr,[1]; [7],578 ± 77 ng/g
same,concentration at 24 hr,[1]; [7],115 ± 33 ng/g
same,half-life,"[1]; vitreous humor, 1250 ng, read-out: mean half-life (t1/2) in vitreous humor (converted)",9.22 h
same,mean vitreal clearance (Cl),[1]; in vivo,0.123 mL/h
same,vitreal clearance,[1]; in vivo,2.95 mL/day
same,Cmax,"[2]; plasma, 1.1 mg/Day, plasma, Oral 1.1 mg/Day, in 95%",< 0.1 ng/mL
same,Cmax,"[2]; plasma, 3 mg/Day, plasma, Oral 3.0 mg/Day",< 0.1 ng/mL
same,Cmax,"[2]; plasma, 6 mg/Day, plasma, Oral 6.0 mg/Day",< 0.1 ng/mL
same,highest plasma concentration of tazarotene in phase 3 clinical trials,[2]; in vivo,6 ng/mL
same,plasma concentration of tazarotene in phase 3 clinical trials,[2]; over 90% of all patients,< 1 ng/mL
same,TAZAROTENE Cmax,"[2]; plasma, Topical Gel 0.1%, for >90%",BLQ for >90%
same,logP,[3],4.3
same,logD,"[3]; pH 7.4, value marked measured in Table 3, read-out: log D pH 7.4 (measured)",4.3
same,protection of retinal function (ERG) and structure (outer nuclear layer thickness),[4],significantly protect both retinal function and structure
same,safety by gross pathology and limited histopathology,[5]; at 4 weeks,good safety profile
same,eyes progressed to traction retinal detachment,"[5]; at 28 days, 10% loaded PLA/PLGA implants, intravitreal",12%
